Experimental findings from patent US20100041920A1, “NEW SALT FORMS OF AN AMINOINDAN DERIVATIVE” (priority 2008, published 2010) are described below.

The conditions of data set [1]: for Colour/Aspect 10 months later / Purity (HPLC) 10 months later / XRD result 10 months later: room temperature, ambient atmosphere; for Purity (HPLC) % initial / XRD result Initial: before storage.
Data set [2] in a line: Flowability studies of rasagiline salts (bulk and tapped density, Hausner ratio). The conditions noted are these: for Flowability: flow character by Hausner ratio; for Bulk density: freely settled; for Hausner ratio: tapped bulk density divided by bulk density.
A short description of the next data set: physchem. The conditions noted are these: water. The procedure:
The mother liquors were analyzed by HPLC.

A short description of data set [3]: Particle size studies of rasagiline salts (Malvern Mastersizer S). The conditions noted are these: particle size by volume, suspended in Isopar G with soybean lecithin.
Data set [4] can be described thus: Accelerated stability studies of rasagiline salts (40° C. and 75% RH; PE and AL bags). The following applies: for XRD 1st Month / Purity (HPLC) 1st Month / XRD 2nd Month / Purity (HPLC) 2nd Month: 40° C. and 75% RH; for XRD 1st Month / Purity (HPLC) 1st Month: 1 month; for XRD 2nd Month / Purity (HPLC) 2nd Month: 2 months. Format: physicochemical. The procedure:
Rasagiline salts were submitted to accelerated conditions (40° C. and 75% RH) in two types of bags: polyethylene (PE) and aluminium (AL) bags. The samples were characterized by HPLC, XRD, and visual inspection.

Setting [5] is: listed as rasagiline besylate Form I.
Where [6] appears, read: room temperature, stirred until equilibration, HPLC.
Setting [7] is: listed as rasagiline succinate Form I.
[8] abbreviates: 40° C. and 75% RH for one and two months.

Where a name gives a salt, the structure may show the parent alone. Read-outs that look alike come from different tables or passages of the source. Some results are limits rather than exact numbers.

As to `C#CCN[C@@H]1CCc2ccccc21` [Hydrochloride, rasagiline hydrochloride], in data set [1], the “Colour/Aspect 10 months later” value was “white powder”, the “Purity (HPLC) 10 months later” value was 99.74%, the “XRD result 10 months later” value is given as “Form I” and the “Purity (HPLC) % initial” value was 99.18%. In addition, in data set [1], the “XRD result Initial” value was “Form I”; the “stability after ten months of storage (in words)” value (“stability after ten months” below) is “highly stable in terms of chemical purity and of polymorphic form”.
One may read the Solubility as the concentration that dissolves in the medium under given conditions. Higher therefore signals a readily soluble substance. Turning to rasagiline besylate [Besylate Form I], in data set [2], the Tapped density stood at 0.435 g/mL, the Flowability entry is “Excellent (1.00-1.11)”, the Bulk density stood at 0.427 g/mL and the Hausner ratio is 1.02. Further, in data set [2] (setting [5]), the Flowability entry is “excellent” and the Hausner ratio came to 1.00. The Flowability result in data set [2] (listed as rasagiline besylate salt Form I) is on record as “excellent”. Besides, the “Descriptive term (solubility)” value in the data set “physchem” (room temperature) was “Freely soluble”. In addition, the Solubility in “physchem” (setting [6]) is over 800 mg/mL. Moreover, in the data set “physchem” (room temperature, stirred until equilibration, HPLC, listed as rasagiline besylate Form I), the Solubility is over 800 mg/mL. For the same compound, the “Descriptive term (solubility)” value in “physchem” (room temperature, listed as rasagiline besylate Form I) was “freely soluble”. In addition, in data set [3], the “D(v, 0.1)” value is 6.5 μm; the “D(v, 0.5)” value came out at 28.8 μm; the “D(v, 0.9)” value is 50.6 μm. In addition, the “stability under accelerated stability conditions (in words)” value in data set [4] (40° C. and 75% RH for one month) was “stable in terms of chemical purity and of polymorphic form”. Also, in data set [4] (AL bag), the “XRD 1st Month” value was “Form I”. Also, the “Purity (HPLC) 1st Month” value in data set [4] (aluminium (AL) bag) is listed as over 99.9%. Further, the “Purity (HPLC) 1st Month” value in data set [4] (polyethylene (PE) bag) was over 99.9%. Also, in data set [4], the “Purity (HPLC) % initial” value was over 99.9% and the “XRD Initial” value is given as “Form I”.
For the compound `C#CCN[C@@H]1CCc2ccccc21.O=C(O)[C@H]1OC(O)[C@H](O)[C@@H](O)[C@@H]1O` [D-Glucuronate, rasagiline D-glucuronate], in data set [1], the “Colour/Aspect 10 months later” value is “brown oil”, the “Purity (HPLC) 10 months later” value is on record as 50.64%, the “XRD result 10 months later” value is recorded as “amorphous” and the “Purity (HPLC) % initial” value came out at 86.00%. Further, in data set [1], the “XRD result Initial” value is “amorphous” and the “stability after ten months” value is “highly stable in terms of polymorphic form”.
In the case of `C#CCN[C@@H]1CCc2ccccc21.O=C(O)[C@H](O)[C@@H](O)[C@H](O)[C@H](O)CO` [Gluconate, rasagiline gluconate], in data set [1], the “Colour/Aspect 10 months later” value is “brown oil”, the “Purity (HPLC) 10 months later” value is given as 96.36%, the “XRD result 10 months later” value was “amorphous” and the “Purity (HPLC) % initial” value is 98.61%. Moreover, in data set [1], the “XRD result Initial” value was “amorphous”.
Consider rasagiline succinate [Succinate Form I], for which, in data set [2], the Tapped density was found to be 0.513 g/mL, the Flowability entry is reported as “Excellent (1.00-1.11)”, the Bulk density is 0.492 g/mL and the Hausner ratio came to 1.04. In data set [2] (setting [7]), the Flowability entry is on record as “excellent” and the Hausner ratio entry is given as “about 1.04”. In data set [2] (listed as rasagiline succinate salt Form I), the Flowability result is listed as “excellent”. For the same compound, the “Descriptive term (solubility)” value in “physchem” (room temperature) is given as “Very soluble”. Moreover, the Solubility in the data set “physchem” (setting [6]) was over 1200 mg/mL. This compound showed a Solubility in “physchem” (room temperature, stirred until equilibration, HPLC, listed as rasagiline succinate Form I) of over 1200 mg/mL. Moreover, the “Descriptive term (solubility)” value in the data set “physchem” (room temperature, listed as rasagiline succinate Form I) is “very soluble”. Further, in data set [3], the “D(v, 0.1)” value was 23.6 μm; the “D(v, 0.5)” value is 85.1 μm; the “D(v, 0.9)” value came to 180.4 μm. In data set [1], the “Purity (HPLC) 10 months later” value came out at 99.61%, the “XRD result 10 months later” value is “Form I”, the “Purity (HPLC) % initial” value worked out at 99.29% and the “XRD result Initial” value is reported as “Form I”. In addition, the “stability after ten months” value in data set [1] is “highly stable in terms of visual aspect, chemical purity and of polymorphic form”. Moreover, in data set [4] (setting [8]), the “stability under accelerated stability conditions (in words)” value was “highly stable in terms of visual aspect, chemical purity and of polymorphic form”. In addition, in data set [4] (AL bag), the “XRD 1st Month” value is “Form I” and the “XRD 2nd Month” value is on record as “Form I”. Further, in data set [4] (PE bag), the “XRD 1st Month” value is “Form I” and the “XRD 2nd Month” value was “Form I”. Also, in data set [4] (aluminium (AL) bag), the “Purity (HPLC) 1st Month” value is listed as over 99.9% and the “Purity (HPLC) 2nd Month” value is listed as 99.92%. Also, in data set [4] (polyethylene (PE) bag), the “Purity (HPLC) 1st Month” value is reported as over 99.9% and the “Purity (HPLC) 2nd Month” value was found to be 99.92%. Further, in data set [4], the “Purity (HPLC) % initial” value was over 99.9% and the “XRD Initial” value is recorded as “Form I”.
In the case of `C#CCN[C@@H]1CCc2ccccc21.CS(=O)(=O)O` [Mesylate, R-(+)-N-propargyl-1-aminoindan mesylate, reference compound], in data set [2], the Tapped density came out at 0.407 g/mL and the Bulk density was 0.236 g/mL. The Flowability entry in data set [2] (listed as rasagiline mesylate, mesylate) is reported as “very, very poor”. The Flowability result in data set [2] (mesylate) is listed as “Very, very poor (>1.60)”. Moreover, in data set [1], the “Colour/Aspect 10 months later” value is recorded as “white powder”, the “Purity (HPLC) 10 months later” value worked out at 99.8%, the “XRD result 10 months later” value is listed as “Form I” and the “Purity (HPLC) % initial” value is recorded as 99.58%. The “XRD result Initial” value in data set [1] was “Form I”.
With rasagiline maleate, in data set [1], the “Colour/Aspect 10 months later” value is reported as “white powder”, the “Purity (HPLC) 10 months later” value is on record as 63.27%, the “Purity (HPLC) % initial” value turned out to be 66.54% and the “XRD result Initial” value is listed as “Form I”.
For the compound `C#CCN[C@@H]1CCc2ccccc21.C#CCN[C@@H]1CCc2ccccc21.O=C(O)C(O)C(O)C(=O)O` [Hemitartrate Form I, rasagiline L-hemitartrate], in data set [2], the Tapped density is listed as 0.181 g/mL, the Flowability result is given as “Passable (1.26-1.34)” and the Bulk density was determined as 0.138 g/mL. In data set [2] (listed as rasagiline L-hemitartrate Form I), the Flowability entry is reported as “passable”. In data set [2] (listed as rasagiline L-hemitartrate salt Form I), the Flowability result is on record as “excellent”. In addition, in data set [3], the “D(v, 0.1)” value came to 4.5 μm; the “D(v, 0.5)” value was found to be 18.3 μm; the “D(v, 0.9)” value worked out at 78.8 μm. Further, in data set [1], the “Colour/Aspect 10 months later” value is on record as “white powder”, the “Purity (HPLC) 10 months later” value stood at 98.86%, the “XRD result 10 months later” value is on record as “Form I” and the “Purity (HPLC) % initial” value came to 99.14%. Also, in data set [1], the “XRD result Initial” value was “Form I”; the “stability after ten months” value is “highly stable in terms of visual aspect, chemical purity and of polymorphic form”. Moreover, in data set [4] (setting [8]), the “stability under accelerated stability conditions (in words)” value was “highly stable in terms of visual aspect, chemical purity and of polymorphic form”. Further, in data set [4], the “Purity (HPLC) % initial” value stood at 99.27% and the “XRD Initial” value is recorded as “Form I”.
As for rasagiline fumarate, in data set [1], the “Purity (HPLC) 10 months later” value is given as 53.64%, the “Purity (HPLC) % initial” value is 59.56% and the “XRD result Initial” value is reported as “Form I”.
Turning to `C#CCN[C@@H]1CCc2ccccc21.O=C(O)[C@@H](O)[C@H](O)[C@H](O)[C@@H](O)C(=O)O` [Galactarate, rasagiline galactarate], in data set [1], the “Purity (HPLC) 10 months later” value is reported as 98.81%; the “Purity (HPLC) % initial” value is 98.92%; the “stability after ten months” value was “stable in terms of chemical purity and of polymorphic form”.
As to rasagiline phosphate, in data set [1], the “Colour/Aspect 10 months later” value is on record as “white powder”, the “Purity (HPLC) 10 months later” value came out at 99.60%, the “Purity (HPLC) % initial” value is given as 98.45% and the “XRD result Initial” value is reported as “amorphous”.
With `C#CCN[C@@H]1CCc2ccccc21` [Hydrochloride Form II, rasagiline hydrochloride], in data set [2], the Tapped density is 0.673 g/mL and the Bulk density is listed as 0.673 g/mL. Moreover, the Flowability entry in data set [2] (hydrochloride) is on record as “Excellent (1.00-1.11)”. In addition, the Flowability result in data set [2] (listed as rasagiline hydrochloride Form II, hydrochloride) is recorded as “excellent”. The Flowability entry in data set [2] (listed as rasagiline hydrochloride salt Form II, hydrochloride) is reported as “excellent”. In “physchem” (thermodynamic from solid), the Solubility is about 400 mg/mL. In data set [3], the “D(v, 0.1)” value was determined as 41.7 μm; the “D(v, 0.5)” value is given as 99.6 μm; the “D(v, 0.9)” value is given as 185.2 μm. Further, the “stability under accelerated stability conditions (in words)” value in data set [4] (setting [8]) was “highly stable in terms of visual aspect, chemical purity and of polymorphic form”. In data set [4] (AL bag), the “XRD 1st Month” value is “Form II” and the “XRD 2nd Month” value is “Form II”. Moreover, in data set [4] (PE bag), the “XRD 1st Month” value was “Form II” and the “XRD 2nd Month” value is on record as “Form II”. For the same compound, in data set [4] (aluminium (AL) bag), the “Purity (HPLC) 1st Month” value is given as over 99.9% and the “Purity (HPLC) 2nd Month” value was over 99.9%. Further, in data set [4] (polyethylene (PE) bag), the “Purity (HPLC) 1st Month” value is given as over 99.9% and the “Purity (HPLC) 2nd Month” value is reported as over 99.9%. In data set [4], the “Purity (HPLC) % initial” value was over 99.9% and the “XRD Initial” value is given as “Form II”.
In the case of rasagiline tosylate, in data set [1], the “Purity (HPLC) 10 months later” value was 75.89%, the “XRD result 10 months later” value is “Form I”, the “Purity (HPLC) % initial” value stood at 79.87% and the “XRD result Initial” value is listed as “Form I”. Further, the “stability after ten months” value in data set [1] was “highly stable in terms of polymorphic form”.
